Test results reported in patent publication US7713994B2 (Wyeth LLC, priority 2005, dated 2010).
Where two headings read alike, the source gives them in different places.

Legend:
HCT-116 = experiment: Cytotoxicity assay (SRB), HCT-116; type: cell-based; conditions: Homo sapiens, HCT-116, 72 h, HCT116 cells, SRB, read-out: In Vitro Cellular Activity IC50 HCT116
Procedure, shortened: (§1)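 Cells grown in RPMI 1640 with 5% FBS were treated with compound for three days (HCT-116, LoVo, MCF-7) or six days (BT474). Viable cell mass was quantified by sulforhodamine B staining of TCA-fixed protein and read at 540 nm.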

cyclin D1/cdk 4 enzyme = molecular target: T1, cyclin D1/cdk 4 enzyme (Homo sapiens, UniProt P11802); experiment: CDK4 ELISA kinase assay (phospho-Rb ser 795 detection); type: biochemical; conditions: In Vitro Enzyme Assays, 200 μM ATP, read-out: CDK4 IC50
T1 construct: made in house; host or cells: Sf9 insect cells, recombinant baculovirus
Procedure, shortened: (§2)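 GST-Rb C-terminal fragment coated on wells; kinase reaction: 200 μM ATP, 0.5 mg/ml BSA, HEPES pH 7.5, 10 mM MgCl2, baculovirus/Sf9 cyclin-CDK, 30° C, 1 h. Readout anti-phospho-Rb Ser795, HRP, TMB, A450. Test compound 10 ug/ml final.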

MCF-7 = experiment: Cytotoxicity assay (SRB), MCF-7; type: cell-based; conditions: Homo sapiens, MCF7, 72 h, MCF-7 cells, SRB, read-out: In Vitro Cellular Activity IC50 MCF-7
Procedure, shortened: as §1

cyclin B/CDK1 enzyme = molecular target: T2, cyclin B/CDK1 enzyme (Homo sapiens, UniProt P06493); experiment: CDK1 ELISA kinase assay (phospho-Rb ser 795 detection); type: biochemical; conditions: In Vitro Enzyme Assays, read-out: CDK1 IC50
T2 construct: purchased New England BioLabs; host or cells: Sf9 insect cells, recombinant baculovirus
Procedure, shortened: as §2

LoVo = experiment: Cytotoxicity assay (SRB), LoVo; type: cell-based; conditions: Homo sapiens, LoVo, 72 h, LoVo cells, SRB, read-out: In Vitro Cellular Activity IC50 LOVO
Procedure, shortened: as §1

BT474 = experiment: Cytotoxicity assay (SRB), BT474; type: cell-based
Procedure, shortened: as §1

cyclin E/CDK2 enzyme = molecular target: T3, cyclin E/CDK2 enzyme (Homo sapiens, UniProt P24941); experiment: CDK2 ELISA kinase assay (phospho-Rb ser 795 detection); type: biochemical; conditions: In Vitro Enzyme Assays, read-out: CDK2 IC50
T3 construct: made in house; host or cells: Sf9 insect cells, recombinant baculovirus
Procedure, shortened: as §2

[1] = Homo sapiens, BT-474, 144 h, BT474 cells, SRB, 6 days; read-out: In Vitro Cellular Activity IC50 BT474

T2 sequence (P06493 whole entry): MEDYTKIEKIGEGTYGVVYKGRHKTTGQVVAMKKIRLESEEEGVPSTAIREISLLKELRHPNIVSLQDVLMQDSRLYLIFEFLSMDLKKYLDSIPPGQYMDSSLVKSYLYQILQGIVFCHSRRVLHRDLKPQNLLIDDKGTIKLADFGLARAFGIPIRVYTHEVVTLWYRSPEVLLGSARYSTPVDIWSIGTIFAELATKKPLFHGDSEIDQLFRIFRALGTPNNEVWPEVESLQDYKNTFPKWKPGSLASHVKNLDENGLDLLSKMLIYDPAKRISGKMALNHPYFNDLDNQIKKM
T2 sequence (P14635 whole entry partner): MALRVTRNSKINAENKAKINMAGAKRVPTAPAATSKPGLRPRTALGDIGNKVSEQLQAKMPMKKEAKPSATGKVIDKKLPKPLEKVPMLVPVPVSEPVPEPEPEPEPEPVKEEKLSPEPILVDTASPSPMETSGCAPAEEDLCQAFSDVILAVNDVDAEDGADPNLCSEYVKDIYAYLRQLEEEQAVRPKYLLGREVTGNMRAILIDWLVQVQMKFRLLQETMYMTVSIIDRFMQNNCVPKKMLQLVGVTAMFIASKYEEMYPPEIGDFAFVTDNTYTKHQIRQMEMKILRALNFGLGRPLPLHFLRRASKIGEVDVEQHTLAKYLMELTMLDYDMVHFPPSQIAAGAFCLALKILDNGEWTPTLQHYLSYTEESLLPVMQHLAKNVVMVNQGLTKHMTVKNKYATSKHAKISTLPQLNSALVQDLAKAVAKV
T1 sequence (P11802 whole entry, species assumed): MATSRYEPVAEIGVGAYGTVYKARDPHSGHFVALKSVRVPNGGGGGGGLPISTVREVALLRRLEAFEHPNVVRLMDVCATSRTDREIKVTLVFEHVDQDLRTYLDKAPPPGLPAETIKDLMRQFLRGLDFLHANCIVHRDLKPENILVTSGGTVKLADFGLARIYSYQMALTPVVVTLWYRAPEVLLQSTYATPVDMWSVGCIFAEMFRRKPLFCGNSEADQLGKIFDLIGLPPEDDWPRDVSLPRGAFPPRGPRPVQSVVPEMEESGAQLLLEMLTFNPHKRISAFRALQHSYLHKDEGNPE
T1 sequence (P24385 whole entry partner, species assumed): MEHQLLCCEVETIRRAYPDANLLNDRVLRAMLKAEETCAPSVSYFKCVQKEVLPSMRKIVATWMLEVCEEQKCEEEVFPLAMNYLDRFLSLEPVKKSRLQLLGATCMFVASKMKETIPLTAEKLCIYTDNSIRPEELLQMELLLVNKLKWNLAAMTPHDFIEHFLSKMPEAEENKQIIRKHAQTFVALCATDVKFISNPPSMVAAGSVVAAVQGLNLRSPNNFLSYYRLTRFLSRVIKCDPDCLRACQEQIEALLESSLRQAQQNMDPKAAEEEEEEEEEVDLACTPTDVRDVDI

IC50 (cyclin D1/cdk 4 enzyme) | melting point | IC50 (cyclin B/CDK1 enzyme) | IC50 (cyclin E/CDK2 enzyme) | SMILES | IC50 (HCT-116; three days) | IC50 (MCF-7; three days) | IC50 (LoVo; three days) | IC50 (BT474; [1]) | IC50 (HCT-116; 3 days) | IC50 (MCF-7; 3 days) | IC50 (LoVo; 3 days) | IC50 (BT474; Homo sapiens, BT-474, 144 h, BT474 cells, 6 days, SRB; read-out: In Vitro Cellular Activity IC50 BT474)
0.3 µM | 145 to 146 °C | > 50 µM | > 50 µM | CO[C@H]1CCN(Cc2ccc(N/C=C3\C(=O)NC(=O)c4ccc(-c5ccc(F)cc5)cc43)cc2)C1 [Example 265, (4Z)-6-(4-Fluorophenyl)-4-{[(4-{[(3S)-3-methoxypyrrolidin-1-yl]methyl}phenyl)amino]methylene}isoquinoline-1,3(2H,4H)-dione] | 2 µM | 1.4 µM | 2.8 µM | 1.7 µM |  |  |  | 
4.1 µM | 229 to 230 °C | > 50 µM | > 50 µM | CC1CN(c2ccc(N/C=C3\C(=O)NC(=O)c4ccc(Br)cc43)cc2)CC(C)N1 (stereo not shown) [Example 201] | 1.1 µM | 1.7 µM | 1.4 µM | 1.4 µM |  |  |  | 
0.36 µM | 139 to 140 °C | 44.4 µM | 37.1 µM | CN(C)CCCN1CCC(c2ccc(N/C=C3\C(=O)NC(=O)c4ccc(I)cc43)cc2)CC1 [Example 425, (4Z)-4-{[(4-{1-[3-(Dimethylamino)propyl]piperidin-4-yl}phenyl)amino]methylene}-6-iodoisoquinoline-1,3(2H,4H)-dione] |  |  |  |  | 0.6 µM | 2.6 µM | 1.2 µM | 1.5 µM
0.31 µM | 165 to 166 °C | > 50 µM | > 50 µM | CC1CCCN1Cc1ccc(N/C=C2\C(=O)NC(=O)c3ccc(-c4ccc(F)cc4)cc32)cc1 (stereo not shown) [Example 289, (4Z)-6-(4-Fluorophenyl)-4-[({4-[(2-methylpyrrolidin-1-yl)methyl]phenyl}amino)-methylene]isoquinoline-1,3(2H,4H)-dione] | 2.2 µM | 0.9 µM | 7.4 µM | 1.3 µM |  |  |  | 
24.3 µM | 214 to 215 °C | > 50 µM | 4.5 µM | Nc1cccc(CN/C=C2\C(=O)NC(=O)c3ccc(Br)cc32)c1 [Example 52, (4Z)-4-{[(3-Aminobenzyl)amino]methylene}-6-bromoisoquinoline-1,3(2H,4H)-dione] | 40 µM | > 50 µM | > 50 µM | 41 µM |  |  |  | 
1.3 µM | 212 to 214 °C (dec.) | > 50 µM | > 50 µM | O=C1NC(=O)c2ccc(Br)cc2/C1=C/Nc1ccc(CCN2CCCC2)cc1 [Example 176, 6-Bromo-4-{[4-(2-pyrrolidin-1-yl-ethyl)-phenylamino]-methylene}-4H-isoquinolin-1,3-dione] | 3.4 µM | 3.8 µM | 4.5 µM | 7.2 µM |  |  |  | 

Second part, the compound before the results:

SMILES | IC50 (cyclin D1/cdk 4 enzyme) | melting point | IC50 (cyclin B/CDK1 enzyme) | IC50 (cyclin E/CDK2 enzyme) | IC50 (HCT-116; three days) | IC50 (MCF-7; three days) | IC50 (LoVo; three days) | IC50 (BT474; [1]) | IC50 (HCT-116; 3 days) | IC50 (MCF-7; 3 days) | IC50 (LoVo; 3 days) | IC50 (BT474; Homo sapiens, BT-474, 144 h, BT474 cells, 6 days, SRB; read-out: In Vitro Cellular Activity IC50 BT474)
C[C@@H]1CN(c2ccc(N/C=C3\C(=O)NC(=O)c4ccc(-c5ccc(F)cc5)cc43)cc2F)C[C@H](C)N1 [Example 326, (4Z)-4-[({4-[(3R,5S)-3,5-Dimethylpiperazin-1-yl]-3-fluorophenyl}amino)methylene]-6-(4-fluorophenyl)isoquinoline-1,3(2H,4H)-dione] | 9.2 µM | 182 to 183 °C | 31.4 µM | > 50 µM | 1 µM | 1.8 µM | 3.7 µM | 0.98 µM |  |  |  | 
O=C1NC(=O)c2ccc(Br)cc2/C1=C/Nc1cc(F)c(N2CCN3CCC[C@H]3C2)c(F)c1 [Example 370, (4Z)-6-Bromo-4-[({3,5-difluoro-4-[(8aS)-hexahydropyrrolo[1,2-a]pyrazin-2(1H)-yl]phenyl}amino)methylene]isoquinoline-1,3(2H,4H)-dione] | 21.1 µM | 190 to 191 °C | 42.5 µM | > 50 µM | 4.2 µM | 6.7 µM | 6.4 µM | 6.3 µM |  |  |  | 
O=C1NC(=O)c2ccc(Br)cc2/C1=C/NCc1ccc(OCC2CC2)c(O)c1 [Example 219, (4Z)-6-Bromo-4-({[4-(cyclopropylmethoxy)-3-′hydroxybenzyl]amino}methylene)isoquinoline-1,3(2H,4H)-dione] | 0.27 µM | 210 to 211 °C | > 50 µM | > 50 µM | 2.8 µM | 32 µM | 6.9 µM | 1.9 µM |  |  |  | 
C[C@@H]1CN(c2ccc(N/C=C3\C(=O)NC(=O)c4ccc(-c5ccoc5)cc43)cc2F)C[C@H](C)N1 [Example 324, (4Z)-4-[({4-[(3R,5S)-3,5-Dimethylpiperazin-1-yl]-3-fluorophenyl}amino)methylene]-6-(3-furyl)isoquinoline-1,3(2H,4H)-dione] | 0.17 µM | 222 to 223 °C | > 50 µM | > 50 µM | 0.96 µM | 0.83 µM | 3.3 µM | 0.74 µM |  |  |  | 
C[C@@H]1CN(c2cncc(N/C=C3\C(=O)NC(=O)c4ccc(-c5ccoc5)cc43)c2)C[C@H](C)N1 [Example 346, (4Z)-4-[({5-[(3R,5S)-3,5-Dimethylpiperazin-1-yl]pyridin-3-yl}amino)methylene]-6-(3-furyl)isoquinoline-1,3(2H,4H)-dione] | 0.18 µM | 175 to 176 °C | > 50 µM | > 50 µM | 1.9 µM | 1.4 µM | 2.1 µM | 0.96 µM |  |  |  | 
CN1CCN(c2ccc(N/C=C3\C(=O)NC(=O)c4ccc(-c5ccc(F)cc5)cc43)cc2F)CC1 [Example 290, (4Z)-4-({[3-Fluoro-4-(4-methylpiperazin-1-yl)phenyl]amino}methylene)-6-(4-fluorophenyl)isoquinoline-1,3(2H,4H)-dione] | 0.32 µM | 166 to 167 °C | > 50 µM | > 50 µM | 1.8 µM | 2.3 µM | 5.4 µM | 2.5 µM |  |  |  | 
CC(=O)Nc1ccc(CN/C=C2\C(=O)NC(=O)c3ccc(Br)cc32)cc1OC(C)=O [Example 141, 2-(Acetylamino)-5-({[(Z)-(6-bromo-1,3-dioxo-2,3-dihydroisoquinolin-4(1H)-′ylidene)methyl]amino}methyl)phenyl acetate] | 0.19 µM | 264 to 265 °C | > 50 µM | > 50 µM | 0.84 µM | 16 µM | 1.3 µM | 0.56 µM |  |  |  | 
O=C1NC(=O)c2ccc(-c3ccsc3)cc2/C1=C/Nc1cc(F)c(N2CCN3CCC[C@H]3C2)c(F)c1 [Example 371, (4Z)-4-[({3,5-Difluoro-4-[(8aS)-hexahydropyrrolo[1,2-a]pyrazin-2(1H)-yl]phenyl}amino)-methylene]-6-thien-3-ylisoquinoline-1,3(2H,4H)-dione] | 0.1 µM | 190 to 191 °C | > 50 µM | > 50 µM | 1.1 µM | 4.1 µM | 2.8 µM | 3.1 µM |  |  |  | 
O=C1NC(=O)c2ccc(Br)cc2/C1=C/N1CCN(CCN2CCOCC2)CC1 [Example 105, (4Z)-6-Bromo-4-{[4-(2-morpholin-4-ylethyl)piperazin-1-yl]methylene}isoquinoline-1,3(2H,4H)-dione] | 24.3 µM | 156 to 156.5 °C | > 50 µM | > 50 µM | 42.6 µM | > 50 µM | 42.9 µM | 36.9 µM |  |  |  | 
COC(=O)Oc1ccc(CN/C=C2\C(=O)NC(=O)c3ccc(Br)cc32)cc1OC(=O)OC [Example 76, Carbonic acid 5-{[(6-bromo-1,3-dioxo-2,3-dihydro-1H-isoquinolin-4-ylidenemethyl)-amino]-methyl}-2-methoxycarbonyloxy-phenyl ester methyl ester] | 0.39 µM | 239 to 240 °C | 40.7 µM | > 50 µM | 5 µM | 9.1 µM | 5.9 µM | 5.5 µM |  |  |  | 
O=C1NC(=O)c2ccc(I)cc2/C1=C/NCc1ccc(OC(F)F)c(O)c1 [Example 267] | 0.008 µM | 254 to 255 °C | 16.5 µM | 1.7 µM | 3.7 µM | 4.8 µM | 3.7 µM | 3.5 µM |  |  |  | 
